Where two headings read alike, the source gives them in different places.
Experiments:
[1] = tested on: C. neoformans clinical isolates; test: MIC/MFC of test compounds, microdilution; format: cell-based, Cryptococcus neoformans; settings: for MIC: read-out: MIC
Source text: (§1) Six clinical isolates belonging to the Cryptococcus genus were obtained from patients who attended the Instituto Nacional de Infectologia Evandro Chagas (INI), Fundação Oswaldo Cruz (FIOCRUZ), and were kindly provided by Dr. Rodrigo Almeida-Paes (INI-FIOCRUZ). To comply with ethical standards and institutional agreements between UFRJ and FIOCRUZ, patient data were not disclosed. In this sense, the C. neoformans isolates were designated CFP00213 (213), CFP00223 (223), and CFP00350 (350), while the C. gattii isolates were labeled CFP00023 (23), CFP00025 (25), and CFP00027 (27). Before each experiment, an aliquot of the culture was transferred from Sabouraud dextrose agar (2% glucose, 1% peptone, and 0.5% yeast extract) to RPMI 1640 medium (Sigma-Aldrich, St. Louis, MO, USA), pH 7.2, buffered with 0.165 M MOPS (Sigma-Aldrich, St. Louis, MO, USA). RPMI medium induces the expression of capsular polysaccharides, the primary virulence factor of Cryptococcus cells. The cultures were incubated at 37 °C for 48 h to promote cell proliferation, stimulate metabolic activation, and enhance capsular development. Yeast cell counts were determined using a Neubauer chamber.
(§2) Following MIC determination, the MFC was assessed by inoculating 10 µL from wells showing no visible fungal growth onto Sabouraud dextrose agar. […] To further support and strengthen the evidence of the anti-Cryptococcus activity of the Cu-phendione and Ag-phendione complexes, we additionally performed MIC/MFC assays using well-characterized standard reference strains: ATCC 28957, H99, T1444 (all C. neoformans), and R265 (C. gattii).

[2] = tested on: C. gattii clinical isolates; test: MIC/MFC of test compounds, microdilution; format: cell-based, Cryptococcus gattii; settings: for MIC: read-out: MIC
Source text: as §1, §2

[3] = tested on: Galleria mellonella larvae; test: In vivo acute toxicity, single treatment; settings: single inoculation
Experimental: (§3) In this set of experiments, G. mellonella larvae weighing approximately 0.2–0.3 g and displaying clear, uniform coloration were used. The larvae were inoculated (10 µL/larva) using an insulin syringe (BD Ultra-Fine, Franklin Lakes, NJ, USA) at the last left proleg. […] We also assessed their coloration through visual analysis as an indicator of stress levels. Throughout the experiments, the larvae were maintained at 37 °C [19, 42]. Two distinct treatment protocols were designed to evaluate the effects of the test compounds on larval survivability, as detailed below.
For the acute toxicity analysis, the test compounds were administered to the larvae in a single inoculation at concentrations ranging from 1000 to 125 μM. Each group consisted of 10 larvae, while the control group received only sterile PBS with 4% DMSO. […] The SI was calculated using the following equation: SI = G. mellonella CC50/Cryptococcus MIC.

hamsters = tested on: hamsters; design: method as in doi:10.1016/j.ejmcr.2022.100093; settings: 1 mg/kg five times per week for nine weeks; cited from earlier work
[4] = tested on: C. neoformans or C. gattii; test: Stability of antifungal activity (MIC repeated every six months over two years); format: cell-based, Cryptococcus neoformans and Cryptococcus gattii; settings: same DMSO solution, room temperature, protected from light, MIC every six months for 730 days
Source text: To evaluate the stability of the antifungal activity of the test complexes, the MIC assay was repeated every six months over a two-year period using the same Ag-phendione or Cu-phendione solution. The solutions were stored at room temperature and protected from light to maintain their chemical integrity.

[5] = tested on: hemocytes of G. mellonella larvae; format: in vivo, Galleria mellonella; settings: 24 h
Experimental: The hemocyte density in the hemolymph of larvae inoculated with both complexes was assessed to evaluate potential immunological changes in G. mellonella. […] To analyze hemocyte density, a ventral caudal incision was made between the last prolegs of each larva using a surgical scalpel, and 10 μL of hemolymph was collected. The hemolymph was then diluted 1:100 in 990 μL of an anticoagulant buffer solution (98 mM NaOH, 186 mM NaCl, 17 mM EDTA, and 41 mM citric acid, pH 4.5). The number of hemocytes in each dilution was subsequently counted using a Neubauer chamber (Thermo Fisher Scientific, Waltham, MA USA).

[6] = tested on: Galleria mellonella larvae; test: In vivo chronic toxicity, multiple treatment
Experimental: as §3
For the chronic toxicity analysis, larvae were inoculated daily for five consecutive days with the test complexes (Cu-phendione or Ag-phendione) at a high concentration of 62.5 μM. Each group consisted of 10 larvae, while the control group received only sterile PBS with 4% DMSO.

[7] = tested on: C. neoformans reference strains (ATCC 28957, H99, T1444); test: MIC of complexes against reference strains; format: cell-based, Cryptococcus neoformans
Source text: (§4) To further support and strengthen the evidence of the anti-Cryptococcus activity of the Cu-phendione and Ag-phendione complexes, we additionally performed MIC/MFC assays using well-characterized standard reference strains: ATCC 28957, […], […] (all C. neoformans), and […]).

[8] = tested on: C. gattii reference strain R265; test: MIC of complexes against reference strain; format: cell-based, Cryptococcus gattii
Source text: as §4

mice = tested on: mice; design: method as in doi:10.1039/c2tx00010e; settings: cited from earlier work
Sheep erythrocytes = tested on: Sheep erythrocytes
Experimental: To evaluate the hemolytic activity of the test compounds, the microdilution method was performed in PBS using 96-well cell culture plates, as described by Evans et al.. PBS containing the test compounds (phendione, Cu-phendione, and Ag-phendione) at varying concentrations (1.9–62.5 µM) was added to the wells. Sheep erythrocytes (Cultilab, Rio de Janeiro, RJ, Brazil) were diluted in PBS to a final concentration of 2% (approximately 2 × 10^8 erythrocytes) and added to each well. The final volume of each well was 200 μL. A negative control (PBS and blood) and a positive control (PBS, blood, and 1% Triton X-100) were also included. The plates were incubated at 37 °C for 24 h, then centrifuged at 500× g for 10 min at 4 °C. Following centrifugation, 100 μL of the supernatant from each well was transferred to a new 96-well microplate, and absorbance was measured using a microplate reader ([…] SkyHigh; Thermo Scientific, Waltham, MA, USA) at 415 nm. […] The average absorbance of the positive control was set as 100% hemolysis, and the percentage hemolysis of the other groups was calculated accordingly. The selectivity index (SI) was determined using the following equation: SI = erythrocyte CC50/Cryptococcus MIC.

[9] = all C. neoformans clinical isolates
[10] = all C. gattii clinical isolates
[11] = 62.5 µM daily for five consecutive days

## O.O.O.O.O=C1C(=O)c2cccnc2-c2ncccc21.O=C1C(=O)c2cccnc2-c2ncccc21.O=C1C(=O)c2cccnc2-c2ncccc21.[Cu+2].[O-][Cl+3]([O-])([O-])[O-].[O-][Cl+3]([O-])([O-])[O-] [Cu-phendione, [Cu(phendione)3](ClO4)2·4H2O]
[1]; C. neoformans isolate 213
  MFC: 50 µM
  MIC: 3.125 µM
[1]; C. neoformans isolate 223
  MFC: 50 µM
  MIC: 3.125 µM
[1]; C. neoformans isolate 350
  MFC: 50 µM
  MIC: 3.125 µM
[1]; [9]
  MFC: 50 µM
  MIC: 3.125 µM
[2]; C. gattii isolate 23
  MFC: 12.5 µM
  MIC: 6.25 µM
[2]; C. gattii isolate 25
  MFC: 12.5 µM
  MIC: 6.25 µM
[2]; C. gattii isolate 27
  MFC: 12.5 µM
  MIC: 6.25 µM
[2]; [10]
  MFC: 12.5 µM
  MIC: 6.25 µM
[3]; assumed, read-out: CC50 (G. mellonella larvae)
  CC50: > 1000 µM
[3]
  Changes in melanization or silk/cocoon production: no visible changes in melanization or silk/cocoon production
[3]; 125–1000 µM, 10 µL/larva, 37 °C
  Larval survival: 100%
hamsters
  Deaths, changes in behavior, diet or body weight: no deaths or changes in behavior, diet, or body weight
  Urea, creatinine, AST, ALT and alkaline phosphatase levels vs control: no differences
[4]
  Stability of antifungal activity (MIC variation): No variation in MIC values
[5]; single inoculation 15.625 µM
  Hemocyte density vs PBS control: significant increase in hemocyte density
[5]; single inoculation 31.25 µM
  Hemocyte density vs PBS control: significant increase in hemocyte density
[5]; single inoculation, other tested concentrations
  Hemocyte density vs PBS control: No notable changes in hemocyte levels
[6]; [11]
  Alterations in stress indicators (melanization, cocoon formation): no alterations
  Chronic toxicity (larval survival monitored over seven days): non-toxic
[6]; daily inoculation 62.5 µM for up to five days
  Larval survival: 100%
[7]; C. neoformans ATCC 28957
  MIC: 1.56 µM
[7]; C. neoformans H99
  MIC: 0.78 µM
[7]; C. neoformans T1444
  MIC: 0.78 µM
[8]
  MIC: 0.19 µM
mice; 45 mg/kg daily for five days plus seven days observation
  Deaths, behavioral, dietary or body weight changes: no deaths or behavioral, dietary, or body weight changes
mice; 45 mg/kg daily for five days
  AST and ALT activities vs control: No significant differences
mice; acute
  Acute toxicity: highest dose with 100% tolerance: 45 mg/kg
Sheep erythrocytes
  CC50: > 62.5 µM
